For one test, the target named is ERAP2 (Homo sapiens (Human), UniProt Q6P179). The test can be described thus: In vitro ERAP activity assay, ERAP2 with R-AMC substrate. The arrangement: IC50 on ERAP2 using R-AMC as substrate: scale not given here. In kind it is biochemical. The conditions noted are these: R-AMC as substrate; for IC50: read-out: IC50 on ERAP2 using R-AMC as substrate. On the procedure: (§1) The enzymatic activity of ERAP1 or 2 was assayed using L-AMC (L-Leucine-7-amido-4-methylcoumarin hydrochloride) or R-AMC (L-Arginine-7-amido-4-methylcoumarin hydrochloride) respectively. Hepes at 50 mM with 100 mM NaCl at pH 7 was used as buffer. Briefly, 60 nL of test compounds were added in 384-wells plates (dark, non-binding surface) by acoustic dispensing with nanoacoustic dispenser Echo (Labcyte) and pre-incubated 30 minutes at ambient temperature with 10 μL of ERAP 0.8 μg/mL or 1 μg/mL or vehicle. The reaction was then started with the addition of 10 μL of substrate at 10 μM. The final concentration of ERAP, substrate and DMSO was 0.5 μg/mL, 5 μM and 0.4% respectively. For the kinetic readout a Victor 3V (Perkin-Elmer) was used with excitation at 380 nm and emission at 450 nm. The fluorescence was measured each 3 minutes during one hour.
(§2) The Z and Z′ factors were calculated according to J.-H. Zhang, T. D. Y. Chung, K. R. Oldenburg, A Simple Statistical Parameter for Use in Evaluation and Validation of High Throughput Screening Assays, J. Biomol. Screen., 4 (1999) 67-73. Data analysis was performed using Xlfit® v 5.0 or GraphPad Prism® v 4.0.
(§3) Percentages of inhibition at different concentrations were obtained as described above and IC50s were carried out as 8-point dose response curves and reported as the average of at least three independent measurements. […] Data analysis was performed using Xlfit® v 5.0 or GraphPad Prism® v 4.0. Nonlinear curve fitting and statistical analysis was done using built-in functions.

The target in a further test is ERAP1 (Homo sapiens (Human), UniProt Q9NZ08). The test can be described thus: In vitro ERAP activity assay, ERAP1 with L-AMC substrate. Type of test: biochemical. The conditions noted are these: L-AMC as substrate; read-out: IC50 on ERAP1 or ERAAP using L-AMC as substrate. As for the experimental part:
as §1, §2, §3

Each structure is given as a SMILES string.

ERAP2, sequence (Q6P179 whole entry): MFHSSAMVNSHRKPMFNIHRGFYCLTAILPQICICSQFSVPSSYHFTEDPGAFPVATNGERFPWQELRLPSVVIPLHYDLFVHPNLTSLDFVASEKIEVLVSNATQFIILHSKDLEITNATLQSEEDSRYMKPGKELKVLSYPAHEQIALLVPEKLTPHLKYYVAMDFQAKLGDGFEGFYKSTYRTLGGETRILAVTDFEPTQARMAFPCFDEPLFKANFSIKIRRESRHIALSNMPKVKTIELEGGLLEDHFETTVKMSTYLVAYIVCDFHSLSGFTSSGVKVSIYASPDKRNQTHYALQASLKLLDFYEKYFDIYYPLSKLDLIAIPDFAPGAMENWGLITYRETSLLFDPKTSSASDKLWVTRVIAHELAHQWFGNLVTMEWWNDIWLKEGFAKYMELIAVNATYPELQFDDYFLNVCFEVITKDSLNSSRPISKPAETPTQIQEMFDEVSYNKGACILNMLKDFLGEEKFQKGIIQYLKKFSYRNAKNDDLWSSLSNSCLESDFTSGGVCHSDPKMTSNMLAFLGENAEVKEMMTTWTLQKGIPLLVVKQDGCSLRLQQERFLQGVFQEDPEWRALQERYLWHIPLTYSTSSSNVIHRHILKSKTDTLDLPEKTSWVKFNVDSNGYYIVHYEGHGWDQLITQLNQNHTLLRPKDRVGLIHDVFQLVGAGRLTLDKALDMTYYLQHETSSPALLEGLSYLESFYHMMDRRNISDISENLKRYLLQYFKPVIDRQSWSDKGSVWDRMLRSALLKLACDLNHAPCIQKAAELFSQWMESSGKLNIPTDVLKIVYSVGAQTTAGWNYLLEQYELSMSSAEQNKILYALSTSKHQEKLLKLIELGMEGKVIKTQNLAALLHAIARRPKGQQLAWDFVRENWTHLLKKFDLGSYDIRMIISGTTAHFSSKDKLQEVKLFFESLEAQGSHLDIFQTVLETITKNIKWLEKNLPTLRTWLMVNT
ERAP1, sequence (Q9NZ08 whole entry): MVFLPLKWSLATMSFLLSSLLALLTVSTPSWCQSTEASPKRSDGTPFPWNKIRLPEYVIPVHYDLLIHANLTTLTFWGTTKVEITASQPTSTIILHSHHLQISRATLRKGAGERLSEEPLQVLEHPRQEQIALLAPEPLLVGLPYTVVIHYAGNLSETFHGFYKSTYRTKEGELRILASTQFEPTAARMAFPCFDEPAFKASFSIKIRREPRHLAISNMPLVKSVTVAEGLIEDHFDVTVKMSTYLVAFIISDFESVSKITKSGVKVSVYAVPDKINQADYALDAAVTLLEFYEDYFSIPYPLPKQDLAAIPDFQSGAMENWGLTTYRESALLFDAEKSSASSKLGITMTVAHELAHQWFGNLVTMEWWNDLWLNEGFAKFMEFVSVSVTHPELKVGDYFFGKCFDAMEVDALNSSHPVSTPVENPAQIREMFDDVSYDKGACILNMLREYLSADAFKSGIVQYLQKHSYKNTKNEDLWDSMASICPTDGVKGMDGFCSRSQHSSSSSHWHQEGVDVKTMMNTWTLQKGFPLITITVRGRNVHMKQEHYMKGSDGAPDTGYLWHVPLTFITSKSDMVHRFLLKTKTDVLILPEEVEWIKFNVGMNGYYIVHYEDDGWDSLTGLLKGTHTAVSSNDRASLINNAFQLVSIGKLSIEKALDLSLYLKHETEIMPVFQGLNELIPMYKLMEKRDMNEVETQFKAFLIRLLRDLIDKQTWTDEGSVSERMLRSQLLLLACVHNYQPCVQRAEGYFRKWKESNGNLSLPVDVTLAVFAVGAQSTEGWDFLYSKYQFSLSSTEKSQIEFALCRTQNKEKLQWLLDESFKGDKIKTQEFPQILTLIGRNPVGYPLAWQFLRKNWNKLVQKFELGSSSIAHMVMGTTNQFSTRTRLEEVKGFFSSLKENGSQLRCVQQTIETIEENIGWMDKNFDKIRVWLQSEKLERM

Broadly, the IC50 is the point on the concentration scale where inhibition reaches its midpoint. `COc1ccc(C[C@@H](C(=O)NO)n2cc(CNS(=O)(=O)c3ccc(-c4ccccn4)s3)nn2)cc1F` [Compound 52]: the IC50 at ERAP2 is less than 0.5 µM; on ERAP1, more than 5 µM.

For `O=C(NO)[C@H](Cc1ccc(O)cc1)n1cc(CNS(=O)(=O)c2ccsc2)nn1` [Compound 17], on ERAP2, the “IC50 on ERAP2 using R-AMC as substrate” value was “+ +”. In addition, on ERAP1, the IC50 was more than 5 µM.

For `NCc1ccc(-c2ccc(S(=O)(=O)NCc3cn([C@@H](Cc4ccc(O)cc4)C(=O)NO)nn3)s2)cc1` [Compound 12], the “IC50 on ERAP2 using R-AMC as substrate” value at ERAP2 is “+ +”. For the same molecule, the half-inhibitory concentration (IC50) at ERAP1 was more than 5 µM.

Regarding `O=C(NO)[C@@H](Cc1c[nH]c2ccccc12)n1cc(CNS(=O)(=O)c2ccc(-c3ccccc3)s2)nn1` [Compound 2], the IC50 on ERAP2 and on ERAP1 was more than 5 µM each time.

Turning to `O=C(NO)[C@H](Cc1ccc(O)c(F)c1)n1cc(CNS(=O)(=O)c2ccc(-c3ccccc3)s2)nn1` [Compound 45], the IC50 is less than 0.5 µM on ERAP2 and more than 5 µM on ERAP1.

In the case of `COc1ccc(C[C@@H](C(=O)NO)n2cc(CNS(=O)(=O)c3ccc(-c4ccccn4)s3)nn2)cc1Cl` [Compound 53], the IC50 at ERAP2 was less than 0.5 µM; at ERAP1, less than 5 µM.

In the case of `CNC(=O)c1ccc(-c2ccc(S(=O)(=O)NCc3cn([C@@H](Cc4ccc(OC)cc4)C(=O)NO)nn3)s2)cc1` [Compound 28], the IC50 on ERAP2 is less than 0.5 µM; at ERAP1 it was less than 5 µM.

Turning to `O=C(NO)[C@@H](Cc1ccc(O)cc1)n1cc(CNS(=O)(=O)c2ccc(-c3ccccn3)s2)nn1` [Compound 20], on ERAP2, the “IC50 on ERAP2 using R-AMC as substrate” value was “+ +”. Further, the half-maximal inhibitory concentration (IC50) on ERAP1 was more than 5 µM.

With `O=C(NO)[C@H](Cc1c[nH]c2ccccc12)n1cc(CNS(=O)(=O)c2ccc(Br)s2)nn1` [Compound 5], at ERAP2, the “IC50 on ERAP2 using R-AMC as substrate” value was “+ +”. The IC50 at ERAP1 was more than 5 µM.

As to `N=C(NO)c1ccc(C[C@@H](C(=O)NO)n2cc(CNS(=O)(=O)c3ccc(-c4ccccc4)s3)nn2)cc1` [Compound 55], the results for the IC50 on ERAP2 and at ERAP1 were less than 0.5 µM and less than 5 µM, respectively.

As for `O=C(NO)[C@H](Cc1ccc(O)cc1)n1cc(CNS(=O)(=O)c2cccs2)nn1` [Compound 15], the “IC50 on ERAP2 using R-AMC as substrate” value on ERAP2 was “+ +”. On ERAP1, the half-maximal inhibitory concentration (IC50) is more than 5 µM.

Source of the values: patent US20240101542A1, “ERAP INHIBITORS” (UNIVERSITE DE LILLE, priority 2020, published 2024).
